Positions of bridges follow the written chain, without caps; N, C: chain ends. Non-standard residues stand in square brackets, D forms with d. Residues, ends and D or L forms follow the SMILES beside them. ξ: configuration not given here. *: point of attachment. ξNMePhe(4-NMe2) = CNC(Cc1ccc(N(C)C)cc1)C(=O)O; Picolinoyl(3-OH) = O=C(c1ncccc1O)*; ξPip(4-oxo) = O=C1CCNC(C(=O)O)C1; Phg = N[CH](C(=O)O)c1ccccc1; Abu = CC[CH](N)C(=O)O
Each compound was assayed against recombinant CpLDH protein (Cryptosporidium parvum, UniProt Q9GT92, F198L/K295E/R251K).

Structure (SMILES) | MEAN CpLDH INHIBITION (%)
O=c1ccc2ccc(CBr)cc2o1 [NSC99027] | -71.89
Cn1c(=O)[nH]c2nncnc2c1=O [NSC99733] | -38.11
Cl.Nc1ccc(OCCCc2c(-c3ccccc3)nc(N)[nH]c2=O)cc1 [NSC100856] | -59.57
Nc1ncnc2c([C@@H]3O[C@H](CO)[C@@H](O)[C@H]3O)[nH]nc12 [NSC102811] | -35.09
COC(=O)[C@@H]1c2cc3c(c(O)c2[C@@H](OC)C[C@@]1(C)O)C(=O)c1c(O)cc2c(c1C3=O)O[C@H]1O[C@@]2(C)[C@H](O)[C@@H](N(C)C)[C@@H]1O [NSC102815] | -3.42
CCC1CN2CCc3cc(OC)c(OC)cc3C2CC1CC1c2cc(OC)c(OC)cc2CCN1C(=O)C1CCCN1C(=O)OCc1ccccc1 (stereo not drawn) [NSC103248] | -105.50
O=C1OC(c2ccccc2)=N/C1=C\c1ccc(N(CCCl)CCCl)cc1 [NSC104117] | -18.47
CC1(C)N=C(N)N=C(N)N1c1ccc(CCCCc2ccc(Cl)cc2Cl)cc1 [NSC104129] | -53.74
COc1ccc(C(=O)/C(Br)=C\C(=O)[O-])cc1.[Na+] [NSC104801] | -32.70
NC1=C(Br)C(=O)c2ncccc2C1=O [NSC105808] | -67.00
Cc1ccc(N=Nc2c(O)ccc3ccccc23)cc1 [NSC106296] | -44.71
CO[C@H]1Nc2c(ccc(C)c2O)C(=O)N2C=C(/C=C/C(N)=O)C[C@@H]12 [NSC106408] | -29.99
CC(C)CCCC(=O)CCCCCCC(=O)CCN(O)C(=O)C(N)CO.O=S(=O)(O)O (stereo not drawn) [NSC106997] | -28.98
O=C1C=C2C=CC3CC2(O1)C1CCCCN31 (stereo not drawn) [NSC107415] | -39.15
CCC1CN2CCc3cc(OC)c(OC)cc3C2CC1CC1c2cc(OC)c(OC)cc2CCN1C(=O)C(Cc1c[nH]c2ccccc12)NC(=O)OC(C)(C)C (stereo not drawn) [NSC109350] | -1.18
CN1CCCC2C(c3ccccc3)C(C3=NCCCC3)C(c3ccccc3)CC21.Cl (stereo not drawn) [NSC109444] | -58.72
N=C1C=C(N)C(=O)c2[nH]c(=O)ccc21 [NSC111041] | -37.64
CC(C)(O)CCC(O)C(C)(O)C1CCC2(O)C3=CC(=O)C4(O)CC(O)C(O)CC4(C)C3CCC12C.CC(C)(O)CCC(O)C(C)(O)C1CCC2(O)C3=CC(=O)C4CC(O)C(O)CC4(C)C3CCC12C (stereo not drawn) [NSC115493] | -100.16

Structure (SMILES) | MEAN CpLDH INHIBITION (%)
Cc1ccc([S+](c2ccccc2)c2cc(C)ccc2C)cc1.O=C(OC(C(=O)[O-])C(OC(=O)c1ccccc1)C(=O)O)c1ccccc1 (stereo not drawn) [NSC116693] | -151.85
Cc1ccc2[c](c1)[Sn]([c]1ccccc1)([c]1ccccc1)[c]1cc(C)ccc1N2C [NSC118030] | -56.74
Cc1ccc(C)c2c(N=Nc3ccccc3[N+](=O)[O-])c(O)[nH]c12 [NSC118732] | -7.91
Cc1ccc(Cl)c2c(N=Nc3ccccc3[N+](=O)[O-])c(O)[nH]c12 [NSC118735] | -15.17
CNc1nc(N(C)C)nc(N(C)C)n1 [NSC118742] | -28.34
S=C=NCc1ccccc1 [NSC118976] | -18.30
Cc1c2ccncc2c(C)c2c1sc1ccccc12 [NSC119686] | -46.09
N.N.[Cl][Pt][Cl] [NSC119875] | -45.38
CCCNC1=C(C)C(=O)C2=C(C1=O)[C@H](COC(N)=O)[C@]1(OC)[C@@H]3N[C@@H]3CN21 [NSC123115] | -0.99
COc1ccc2c(O)c3[n+](cc2c1OC)CCc1cc2c(cc1-3)OCO2 [NSC123390] | -31.27
CC1=C\C(O)CC(=O)Cc2nc(co2)C(=O)N2CCC=C2C(=O)OC(C(C)C)C(C)/C=C/C(=O)NC/C=C\1.CCC1NC(=O)C(NC(=O)c2ncccc2O)C(C)OC(=O)C(c2ccccc2)NC(=O)C2CC(=O)CCN2C(=O)C(Cc2ccc(N(C)C)cc2)N(C)C(=O)C2CCCN2C1=O (stereo not drawn) [NSC125176] ({Picolinoyl(3-OH)}-T[Abu]P[ξNMePhe(4-NMe2)][ξPip(4-oxo)][Phg]; ester 1-C; configuration not given here) | -0.47
COc1ccc(C2c3cc4c(c(OC)c3CC3OCC(=O)C32)OCO4)cc1OC (stereo not drawn) [NSC126727] | -5.88
O=C1C(=O)c2ccccc2C(O)=C1CC=C(Cl)Cl [NSC126771] | -15.17
O=c1cc(O)ccn1[C@@H]1O[C@H](CO)[C@@H](O)[C@H]1O [NSC126849] | -22.36
COc1ccc(-c2cc(=O)c3c(O)cc(O)cc3o2)cc1OC [NSC128305] | -10.13
c1ccc2c(c1)nnn1c3cnccc3nc21 [NSC128734] | -52.88
CCC1=C(C[C@H]2NCCc3cc(OC)c(OC)cc32)C[C@H]2c3cc(OC)c(OC)cc3CCN2C1 [NSC129414] | -16.26
COC1=C(N)C(=O)c2nc(C)ccc2C1=O [NSC132493] | -117.70

From PMC6687188, “Novel lactate dehydrogenase inhibitors with in vivo efficacy against Cryptosporidium parvum” (PLoS Pathogens, 2019)
